# Results published in patent US8586755B2, “Substituted nicotinamides as KCNQ2/3 modulators” (Grünenthal GmbH, priority 2009, dated 2013).
# Molecular target: T1, KCNQ2/3 channels (Homo sapiens, UniProt O43525+O43526)
# T1 construct: expressed in transfected cells
# Assay: Fluorescence assay using a voltage sensitive dye (fluorimetry)
# Format: cell-based
# Conditions: CHO-K1 cells expressing KCNQ2/3 channels; for EC50: agonistic activity; for Emax: read-out: Fluorimetry % efficacy (retigabine 50 μM = 100%)
# Procedure: Pharmacological Experiments Fluorescence Assay Using a Voltage Sensitive Dye
# […] CHO-K1 cells expressing KCNQ2/3 channels are cultivated adherently at 37° C., 5% CO2 and 95% humidity in cell culture bottles (e.g. 80 cm^2 TC flasks, Nunc) with DMEM-high glucose (Sigma Aldrich, D7777) including 10% FCS (PAN Biotech, e.g. 3302-P270521) or alternatively MEM Alpha Medium (1×, liquid, Invitrogen, #22571), 10% fetal calf serum (FCS) (Invitrogen, #10270-106, heat-inactivated) and the necessary selection antibiotics.
# Before being sown out for the measurements, the cells are washed with a 1×DPBS buffer without Ca^2+/Mg^2+ (e.g. Invitrogen, #14190-094) and detached from the bottom of the culture vessel by means of Accutase (PAA Laboratories, #L11-007) (incubation with Accutase for 15 min at 37° C.). The cell count then present is determined using a CASY™ cell counter (TCC model, Schärfe System) in order subsequently to apply, depending on the density optimization for the individual cell line, 20,000-30,000 cells/well/100 μl of the described nutrient medium to 96-well measuring plates of the Corning™ CellBIND™ type (Flat Clear Bottom Black Polystyrene Microplates, #3340). Incubation is then carried out for one hour at room temperature, without gassing or adjusting the humidity, followed by incubation for 24 hours at 37° C., 5% CO2 and 95% humidity.
# The voltage-sensitive fluorescent dye from the Membrane Potential Assay Kit (Red™ Bulk format part R8123 for FLIPR, MDS Analytical Technologies™) is prepared by dissolving the contents of a vessel Membrane Potential Assay Kit Red Component A in 200 ml of extracellular buffer (ES buffer, 120 mM NaCl, 1 mM KCl, 10 mM HEPES, 2 mM CaCl2, 2 mM MgCl2, 10 mM glucose; pH 7.4). After removal of the nutrient medium, the cells are washed with 200 μl of ES buffer, then covered with a layer of 100 μl of the dye solution prepared above and incubated for 45 min at room temperature with the exclusion of light.
# The fluorescence measurements are carried out with a BMG Labtech FLUOstar™ BMG Labtech NOVOstar™ or BMG Labtech POLARstar™ instrument (525 nm excitation, 560 nm emission, Bottom Read mode). After incubation of the dye, 50 μl of the test substances in the desired concentrations, or 50 μl of ES buffer for control purposes, are introduced into separate cavities of the measuring plate and incubated for 30 min at room temperature while being shielded from light. The fluorescence intensity of the dye is then measured for 5 min and the fluorescence value F1 of each well is thus determined at a given, constant time. 15 μl of a […] KCl solution ([…]) are then added to each well. The change in fluorescence is subsequently measured until all the relevant measured values have been obtained (mainly 5-30 min). At a given time after KCl application, a fluorescence value F2 is determined, in this case at the time of the fluorescence peak.
# For calculation, the fluorescence intensity F2 is compared with the fluorescence intensity F1, and the agonistic activity of the target compound on the potassium channel is determined therefrom. F2 and F1 are calculated as follows: […]
# In order to determine whether a substance has agonistic activity,
# A substance has an agonistic activity on the potassium channel when
# [formula] it is possible to conclude that a target compound has agonistic activity if an increase in
# [formula] is to be observed as the dosage of the target compound increases.
# Calculations of EC50 values are carried out with the aid of ‘Prism v4.0’ software (GraphPad Software™).
EC50 [nM],Emax (retigabine 50 μM = 100%) [%],Fluorimetry % efficacy (retigabine 50 μM = 100%) (retigabine 50 μM = 100%) [%],Structure (SMILES)
5450,72,,"O=C(NCCc1ccncc1)c1cccnc1SCCCc1ccc(F)cc1 [compound 89, 2-[3-(4-Fluorophenyl)-propylsulfanyl]-N-(2-pyridine-4-yl-ethyl)-pyridine-3-carboxylic acid amide]"
113,290,,"CC(CCc1ccccc1)Sc1ncccc1C(=O)NCC1CC2CCC1C2 (stereo not shown) [compound 67, N-(5-Bicyclo[2.2.1]heptanyl-methyl)-2-[(1-methyl-3-phenyl-propyl)sulfanyl]-pyridine-3-carboxylic acid amide]"
20,124,,"CC(CCc1ccc(F)c(F)c1)Sc1ncccc1C(=O)NCc1ccc(F)cc1 (stereo not shown) [compound 199, 2-[[3-(3,4-Difluoro-phenyl)-1-methyl-propyl]sulfanyl]-N-[(4-fluorophenyl)-methyl]-pyridine-3-carboxylic acid amide]"
1010,251,,"COc1ccc(CCCSc2ncccc2C(=O)NCC2CC3CCC2C3)cc1 (stereo not shown) [compound 56, N-(5-Bicyclo[2.2.1]heptanyl-methyl)-2-[3-(4-methoxyphenyl)-propylsulfanyl]-pyridine-3-carboxylic acid amide]"
319,53,,"O=C(NCCc1ccccc1)c1cccnc1SCCCc1ccc(F)cc1 [compound 78, 2-[3-(4-Fluorophenyl)-propylsulfanyl]-N-phenethyl-pyridine-3-carboxylic acid amide]"
366,110,,"COC(CNC(=O)c1cccnc1SCCCc1ccc(F)cc1)C(C)(C)C (stereo not shown) [compound 182, 2-[3-(4-Fluorophenyl)-propylsulfanyl]-N-(2-methoxy-3,3-dimethyl-butyl)-pyridine-3-carboxylic acid amide]"
237,207,,"C[C@@H](CCc1ccccc1)Sc1ncccc1C(=O)NCCC(C)(C)C [compound 154, N-(3,3-Dimethyl-butyl)-2-[[(1S)-1-methyl-3-phenyl-propyl]sulfanyl]-pyridine-3-carboxylic acid amide]"
26,214,,"O=C(NCc1ccco1)c1cccnc1SCCC(F)(F)c1ccc(F)cc1 [compound 190, 2-[[3,3-Difluoro-3-(4-fluorophenyl)-propyl]sulfanyl]-N-(furan-2-yl-methyl)-pyridine-3-carboxylic acid amide]"
62,260,,"CC(CCc1ccc(F)cc1)Sc1ncccc1C(=O)NCC1CC2CCC1C2 (stereo not shown) [compound 74, N-(5-Bicyclo[2.2.1]heptanyl-methyl)-2-[[3-(4-fluorophenyl)-1-methyl-propyl]sulfanyl]-pyridine-3-carboxylic acid amide]"
456,111,,"O=C(NCc1cccs1)c1cccnc1SCCCc1ccc2ccccc2c1 [compound 102, 2-(3-Naphthalen-2-yl-propylsulfanyl)-N-(thiophen-2-yl-methyl)-pyridine-3-carboxylic acid amide]"
896,46,,"O=C(CCSc1ncccc1C(=O)NCC1CC2CCC1C2)c1ccc(F)cc1 (stereo not shown) [compound 43, N-(5-Bicyclo[2.2.1]heptanyl-methyl)-2-[[3-(4-fluorophenyl)-3-oxo-propyl]sulfanyl]-pyridine-3-carboxylic acid amide]"
815,215,,"O=C(NCc1nccs1)c1cccnc1SCCCc1ccc(F)cc1 [compound 144, 2-[3-(4-Fluorophenyl)-propylsulfanyl]-N-(thiazol-2-yl-methyl)-pyridine-3-carboxylic acid amide]"
672,238,,"O=C(NCC1CC2CCC1C2)c1cccnc1SCCOc1ccccc1 (stereo not shown) [compound 46, N-(5-Bicyclo[2.2.1]heptanyl-methyl)-2-(2-phenoxy-ethylsulfanyl)-pyridine-3-carboxylic acid amide]"
660,194,,"CCCNC(=O)c1cccnc1SCCCc1ccc(F)cc1 [compound 96, 2-[3-(4-Fluorophenyl)-propylsulfanyl]-N-propyl-pyridine-3-carboxylic acid amide]"
20,233,,"CC(C)CCNC(=O)c1cccnc1SC(C)CCc1cccc(C(F)(F)F)c1 (stereo not shown) [compound 203, N-(3-Methyl-butyl)-2-[[1-methyl-3-[3-(trifluoromethyl)phenyl]-propyl]sulfanyl]-pyridine-3-carboxylic acid amide]"
228,74,,"O=C(NCc1ccc2c(c1)N(CC1CC1)CCO2)c1cccnc1SCCCc1ccc(F)cc1 [compound 160, N-[[4-(Cyclopropyl-methyl)-3,4-dihydro-2H-[1,4]benzoxazin-6-yl]-methyl]-2-[3-(4-fluorophenyl)-propylsulfanyl]-pyridine-3-carboxylic acid amide]"
232,203,,"COC(C)CNC(=O)c1cccnc1SCCC(F)(F)c1ccc(F)cc1 (stereo not shown) [compound 194, 2-[[3,3-Difluoro-3-(4-fluorophenyl)-propyl]sulfanyl]-N-(2-methoxy-propyl)-pyridine-3-carboxylic acid amide]"
11,122,,"CC(CSc1ccccc1)Sc1ncccc1C(=O)NCc1cccs1 (stereo not shown) [compound 24, 2-[(1-Methyl-2-phenylsulfanyl-ethyl)sulfanyl]-N-(thiophen-2-yl-methyl)-pyridine-3-carboxylic acid amide]"
166,83,,"CN1CCOc2ccc(CNC(=O)c3cccnc3SCCCc3ccc(F)cc3)cc21 [compound 162, 2-[3-(4-Fluorophenyl)-propylsulfanyl]-N-[(4-methyl-3,4-dihydro-2H-[1,4]benzoxazin-6-yl)-methyl]-pyridine-3-carboxylic acid amide]"
8840,110,,"CN(C)CCNC(=O)c1cccnc1SCCC(F)(F)c1ccc(F)cc1 [compound 198, 2-[[3,3-Difluoro-3-(4-fluorophenyl)-propyl]sulfanyl]-N-(2-dimethylaminoethyl)-pyridine-3-carboxylic acid amide]"
302,,200,O=C(NCc1cccs1)c1cccnc1CCCSc1cccc(C(F)(F)F)c1 [compound 13]
45,78,,"O=C(NCc1cc(F)cc(F)c1)c1cccnc1SCCCc1ccc(F)cc1 [compound 36, N-[(3,5-Difluoro-phenyl)-methyl]-2-[3-(4-fluorophenyl)-propylsulfanyl]-pyridine-3-carboxylic acid amide]"
325,122,,"COC(=O)c1cccc(CNC(=O)c2cccnc2SCCCc2ccc(F)cc2)c1 [compound 129, 3-[[[2-[3-(4-Fluorophenyl)-propylsulfanyl]-pyridine-3-carbonyl]amino]-methyl]-benzoic acid methyl ester]"
101,116,,"O=C(NCc1cccc(OC(F)(F)F)c1)c1cccnc1SCCCc1ccc(F)cc1 [compound 87, 2-[3-(4-Fluorophenyl)-propylsulfanyl]-N-[[3-(trifluoromethyloxy)-phenyl]-methyl]-pyridine-3-carboxylic acid amide]"
11100,61,,"O=C(NCc1cccs1)c1cccnc1SCCCc1ccccn1 [compound 111, 2-(3-Pyridin-2-yl-propylsulfanyl)-N-(thiophen-2-yl-methyl)-pyridine-3-carboxylic acid amide]"
180,129,,"Cc1cc(CCCSc2ncccc2C(=O)NCc2cccs2)cc(C(F)(F)F)c1 [compound 109, 2-[3-[3-Methyl-5-(trifluoromethyl)-phenyl]-propylsulfanyl]-N-(thiophen-2-yl-methyl)-pyridine-3-carboxylic acid amide]"
